The assay deals with human Autotaxin protein (Homo sapiens, UniProt Q13822). Put plainly: Evaluation of the inhibitory activity against human Autotaxin protein (18:1 LysoPC substrate, choline assay kit, absorbance at 570 nm). The assay is classed as biochemical. Particulars: compound at 500nM; 2 hours at 37 °C; % inhibition = (1 - absorbance test group / absorbance control group) X 100. The method, then:
Solutions of each compound synthesized (80 uM, 100% dimethyl sulfoxide) were sequentially diluted 5-fold with dimethyl sulfoxide to prepare 6 concentrations. Each concentration of the compound was diluted 2-fold with 1x test buffer (50 mM Tris-Cl (pH 8.0), 5 mM KCl, 1 mM CaCl2, 1 mM MgCl2, 140 mM NaCl, deionized water, 1 mg/mL BSA), and 1 uL (1.25% dimethyl sulfoxide) of this diluted mixture was dispensed into each well of a 96-well clear round-bottom plate. 9 uL of 1x test buffer was added, and 20 uL of 240 nM human autotaxin protein (buffer: 50 mM Tris-HCl, pH 8.0, with 150 mM sodium chloride and 20% glycerol) was added. 10 uL of sonicated 360 uM 18:1 LysoPC (diluted with 1x assay buffer) was added. The reaction was performed for 2 hours in a shaking incubator at 37 °C, and a secondary reaction mixture (choline assay kit, KA1662) (65 uL of 1x assay buffer: 1 uL of choline oxidase: 1 uL of dye probe) was prepared. 60 uL of the secondary reaction mixture was added to the plate where the reaction was performed, and incubated for 30 minutes in a shaker. The absorbance value was measured at a wavelength of 570 nm using a SpectraMax iD3 microplate reader. The percentage inhibition activity value (% inhibition) was calculated by the formula: (1 - absorbance value test group / absorbance value control group) X 100.
Take `Fc1cc2c(cc1F)CC(Nc1ncc(-c3nnc(N4CC(c5c[nH]cn5)C4)o3)cn1)C2` [Example 76, 5-(5-(3-(1H-imidazol-4-yl)azetidin-1-yl)-1,3,4-oxadiazol-2-yl)-N-(5,6-difluoro-2,3-dihydro-1H-inden-2-yl)pyrimidin-2-amine]: the inhibition (in general, the drop in the measured response relative to a control, in per cent) at 0.5 µM is 64%. Consider `c1cc2c(cc1CNc1ncc(-c3nnc(N4CC(c5c[nH]nn5)C4)o3)cn1)OCO2` [Example 87, 5-(5-(3-(1H-1,2,3-triazol-4-yl)azetidin-1-yl)-1,3,4-oxadiazol-2-yl)-N-(benzo[d][1,3]dioxol-5-ylmethyl)pyrimidin-2-amine], for which testing at 0.5 µM gave an inhibition of 18%.

As to `CC(C)(C)C(=O)OCn1cc(C2CN(c3nnc(-c4cnc(NCc5ccc6c(c5)OCO6)nc4)o3)C2)nn1` [Example 86, (4-(1-(5-(2-((benzo[d][1,3]dioxol-5-ylmethyl)amino)pyrimidin-5-yl)-1,3,4-oxadiazol-2-yl)azetidin-3-yl)-1H-1,2,3-triazol-1-yl)methyl pivalate], the inhibition at 0.5 µM worked out at 2.8%.

Molecule `Fc1ccc2c(c1)CC(Nc1ncc(-c3nnc(N4CC(c5c[nH]nn5)C4)o3)cn1)C2` (centres unmarked) [Example 65, 5-(5-(3-(1H-1,2,3-triazol-4-yl)azetidin-1-yl)-1,3,4-oxadiazol-2-yl)-N-(5-fluoro-2,3-dihydro-1H-inden-2-yl)pyrimidin-2-amine] had an inhibition at 0.5 µM of 100%. Molecule `Fc1cc2c(cc1F)CC(Nc1ncc(C3CC(N4CC(c5c[nH]nn5)C4)=NO3)cn1)C2` (centres unmarked) [Example 43, 5-(3-(3-(1H-1,2,3-triazol-4-yl)azetidin-1-yl)-4,5-dihydroisoxazol-5-yl)-N-(5,6-difluoro-2,3-dihydro-1H-inden-2-yl)pyrimidin-2-amine] yielded an inhibition at 0.5 µM of 35.4%. Take `Clc1ccc2c(c1)CC(Nc1ncc(-c3nnc(N4CCC(c5c[nH]nn5)C4)o3)cn1)C2` (centres unmarked) [Example 37, 5-(5-(3-(1H-1,2,3-triazol-4-yl)pyrrolidin-1-yl)-1,3,4-oxadiazol-2-yl)-N-(5-chloro-2,3-dihydro-1H-inden-2-yl)pyrimidin-2-amine]: the inhibition at 0.5 µM was found to be 97.9%. The molecule `COc1ccc2c(c1)CC(Nc1ncc(-c3nnc(N4CC(c5c[nH]nn5)C4)o3)cn1)C2` (centres unmarked) [Example 71, 5-(5-(3-(1H-1,2,3-triazol-4-yl)azetidin-1-yl)-1,3,4-oxadiazol-2-yl)-N-(5-methoxy-2,3-dihydro-1H-inden-2-yl)pyrimidin-2-amine] gave an inhibition at 0.5 µM of 95.5%. In the case of `Fc1cc2c(cc1F)CC(Nc1ncc(C3CC(N4CCC(c5c[nH]nn5)C4)=NO3)cn1)C2` (centres unmarked) [Example 17, 5-(3-(3-(1H-1,2,3-triazol-4-yl)pyrrolidin-1-yl)-4,5-dihydroisoxazol-5-yl)-N-(5,6-difluoro-2,3-dihydro-1H-inden-2-yl)pyrimidin-2-amine], 0.5 µM produced 39.5% inhibition.

With `O=C(O)C1CN(c2nnc(-c3cnc(NC4Cc5cc(F)c(F)cc5C4)nc3)o2)C1` [Example 50, 1-(5-(2-((5,6-difluoro-2,3-dihydro-1H-inden-2-yl)amino)pyrimidin-5-yl)-1,3,4-oxadiazol-2-yl)azetidine-3-carboxylic acid], the inhibition at 0.5 µM came out at 14%. `CC1(c2c[nH]nn2)CCN(c2nnc(-c3cnc(NCc4cc(F)cc(F)c4)nc3)o2)C1` (centres unmarked) [Example 33, N-(3,5-difluorobenzyl)-5-(5-(3-methyl-3-(1H-1,2,3-triazol-4-yl)pyrrolidin-1-yl)-1,3,4-oxadiazol-2-yl)pyrimidin-2-amine] displayed an inhibition at 0.5 µM of 29.1%. Turning to `Clc1cc(Cl)cc(CCNc2ncc(-c3nnc(N4CC(c5c[nH]nn5)C4)o3)cn2)c1` [Example 59, 5-(5-(3-(1H-1,2,3-triazol-4-yl)azetidin-1-yl)-1,3,4-oxadiazol-2-yl)-N-(3,5-dichlorophenethyl)pyrimidin-2-amine], the inhibition at 0.5 µM worked out at 49.5%.

For `OC1CCN(c2nnc(-c3cnc(NC4Cc5cc(F)c(F)cc5C4)nc3)o2)C1` (centres unmarked) [Example 26, 1-(5-(2-((5,6-difluoro-2,3-dihydro-1H-inden-2-yl)amino)pyrimidin-5-yl)-1,3,4-oxadiazol-2-yl)pyrrolidin-3-ol], the inhibition at 0.5 µM is 1%.

`COc1ccc2c(c1)CC(Nc1ncc(-c3nnc(N4CC(c5cn(COC(=O)C(C)(C)C)nn5)C4)o3)cn1)C2` (centres unmarked) [Example 70, (4-(1-(5-(2-((5-methoxy-2,3-dihydro-1H-inden-2-yl)amino)pyrimidin-5-yl)-1,3,4-oxadiazol-2-yl)azetidin-3-yl)-1H-1,2,3-triazol-1-yl)methyl pivalate] showed an inhibition at 0.5 µM of 9.6%. `CN(c1ncc(-c2nnc(N3CC(c4c[nH]nn4)C3)o2)cn1)C1Cc2cc(F)c(F)cc2C1` [Example 88, 5-(5-(3-(1H-1,2,3-triazol-4-yl)azetidin-1-yl)-1,3,4-oxadiazol-2-yl)-N-(5,6-difluoro-2,3-dihydro-1H-inden-2-yl)-N-methylpyrimidin-2-amine] yielded an inhibition at 0.5 µM of 10.5%. Regarding `Cc1[nH]nnc1C1CN(c2nnc(-c3cnc(NC4Cc5cc(F)c(F)cc5C4)nc3)o2)C1` [Example 75, N-(5,6-difluoro-2,3-dihydro-1H-inden-2-yl)-5-(5-(3-(5-methyl-1H-1,2,3-triazol-4-yl)azetidin-1-yl)-1,3,4-oxadiazol-2-yl)pyrimidin-2-amine], testing at 0.5 µM gave an inhibition of 84.6%. As to `CS(=O)(=O)OC1CN(c2nnc(-c3cnc(NC4Cc5cc(F)c(F)cc5C4)nc3)o2)C1` [Example 55, 1-(5-(2-((5,6-difluoro-2,3-dihydro-1H-inden-2-yl)amino)pyrimidin-5-yl)-1,3,4-oxadiazol-2-yl)azetidin-3-yl methanesulfonate], the inhibition at 0.5 µM worked out at 17.6%.

With `c1cnc2c(n1)CC(Nc1ncc(-c3nnc(N4CCC(c5c[nH]nn5)C4)o3)cn1)C2` (centres unmarked) [Example 7, N-(5-(5-(3-(1H-1,2,3-triazol-4-yl)pyrrolidin-1-yl)-1,3,4-oxadiazol-2-yl)pyrimidin-2-yl)-6,7-dihydro-5H-cyclopenta[b]pyrazin-6-amine], the inhibition at 0.5 µM worked out at 17%. As to `CC(C)(C)C(=O)OCn1cc(C2CN(c3nnc(-c4cnc(NC5Cc6ccc(F)cc6C5)nc4)o3)C2)nn1` (centres unmarked) [Example 63, (4-(1-(5-(2-((5-fluoro-2,3-dihydro-1H-inden-2-yl)amino)pyrimidin-5-yl)-1,3,4-oxadiazol-2-yl)azetidin-3-yl)-1H-1,2,3-triazol-1-yl)methyl pivalate], at 0.5 µM the inhibition was 1%. As for `O=C(CCCc1nnc(NC2Cc3cc(F)c(F)cc3C2)o1)N1CC(c2c[nH]nn2)C1` [Example 90, 1-(3-(1H-1,2,3-triazol-4-yl)azetidin-1-yl)-4-(5-((5,6-difluoro-2,3-dihydro-1H-inden-2-yl)amino)-1,3,4-oxadiazol-2-yl)butan-1-one], the inhibition at 0.5 µM is 17.9%.

In turn, `Cc1nc(NC2Cc3cc(F)c(F)cc3C2)ncc1-c1nnc(N2CCC(c3c[nH]nn3)C2)o1` (centres unmarked) [Example 16, 5-(5-(3-(1H-1,2,3-triazol-4-yl)pyrrolidin-1-yl)-1,3,4-oxadiazol-2-yl)-N-(5,6-difluoro-2,3-dihydro-1H-inden-2-yl)-4-methylpyrimidin-2-amine] came in with an inhibition at 0.5 µM of 88.1%. As for `Fc1cc2c(cc1F)CC(Nc1ncc(-c3nnc(N4CCC(c5c[nH]nn5)C4)o3)cn1)C2` (centres unmarked) [Example 3, 5-(5-(3-(1H-1,2,3-triazol-4-yl)pyrrolidin-1-yl)-1,3,4-oxadiazol-2-yl)-N-(5,6-difluoro-2,3-dihydro-1H-inden-2-yl)pyrimidin-2-amine], the figure is 100%. The result for `Cc1ncn(C2CN(c3nnc(-c4cnc(NC5Cc6cc(F)c(F)cc6C5)nc4)o3)C2)n1` [Example 80, N-(5,6-difluoro-2,3-dihydro-1H-inden-2-yl)-5-(5-(3-(3-methyl-1H-1,2,4-triazol-1-yl)azetidin-1-yl)-1,3,4-oxadiazol-2-yl)pyrimidin-2-amine] reads 10.4%. For `CC(C)(C)C(=O)OCn1cc(C2CCN(c3nnc(-c4cnc(NC5Cc6cccnc6C5)nc4)o3)C2)nn1` (centres unmarked) [Example 4, (4-(1-(5-(2-((6,7-dihydro-5H-cyclopenta[b]pyridin-6-yl)amino)pyrimidin-5-yl)-1,3,4-oxadiazol-2-yl)pyrrolidin-3-yl)-1H-1,2,3-triazol-1-yl)methyl pivalate], the inhibition at 0.5 µM is 1%. With `CC1(c2c[nH]nn2)CCN(c2nnc(-c3cnc(NC4Cc5cc(F)c(F)cc5C4)nc3)o2)C1` (centres unmarked) [Example 30, N-(5,6-difluoro-2,3-dihydro-1H-inden-2-yl)-5-(5-(3-methyl-3-(1H-1,2,3-triazol-4-yl)pyrrolidin-1-yl)-1,3,4-oxadiazol-2-yl)pyrimidin-2-amine], at 0.5 µM the inhibition was 96.9%. As for `O=c1[nH]nc(C2CCN(c3nnc(-c4cnc(NC5Cc6cc(F)c(F)cc6C5)nc4)o3)C2)o1` (centres unmarked) [Example 23, 5-(1-(5-(2-((5,6-difluoro-2,3-dihydro-1H-inden-2-yl)amino)pyrimidin-5-yl)-1,3,4-oxadiazol-2-yl)pyrrolidin-3-yl)-1,3,4-oxadiazol-2(3H)-one], the inhibition at 0.5 µM was determined as 91.6%. As for `Brc1ccc2c(c1)CC(Nc1ncc(-c3nnc(N4CCC(c5c[nH]nn5)C4)o3)cn1)C2` (centres unmarked) [Example 19, 5-(5-(3-(1H-1,2,3-triazol-4-yl)pyrrolidin-1-yl)-1,3,4-oxadiazol-2-yl)-N-(5-bromo-2,3-dihydro-1H-inden-2-yl)pyrimidin-2-amine], 0.5 µM produced 99.7% inhibition.

For the origin of these results see patent EP4559911A1, “NOVEL HETEROCYCLIC COMPOUND AND PHARMACEUTICAL COMPOSITION FOR INHIBITING AUTOTAXIN COMPRISING THE SAME” (Nextgen Bioscience Co., Ltd., priority 2022, dated 2024).
